According to patent EP4640674A1, “CRYSTAL FORMS OF ETHOXIMOD, PREPARATION METHOD THEREFOR AND USE THEREOF” (Jiankuan (Suzhou) Biotechnology Co., Ltd, priority 2022, dated 2024):
Values joined by “and” are separate entries in the source; they are usually repeats but may differ in a detail not shown here. Identical values can stand only once.

Assays:
Assay type in all cases: physicochemical
[1] = Dynamic solubility at 37 °C (HPLC; residual solid by XRPD); settings: for solubility at 1 h / solubility at 2 h / solubility at 4 h / solubility at 24 h: thermodynamic from solid
Procedure: Samples of the crystal form A and the crystal form B of ethoximod were taken and prepared into saturated solutions at 37 °C in Fasted State Simulated Intestinal Fluid (FaSSIF, pH = 8.0), Fed State Simulated Intestinal Fluid (FeSSIF, pH = 5.0), Simulated Gastric Fluid (SGF, pH = 1.0), a hydrochloric acid aqueous solution (pH = 1.0), an acetic acid-sodium acetate buffer system (pH = 4.0), a phosphate buffer system (pH = 6.8) and water. After 1 h/2 h/4 h/24 h, filtration was performed to obtain solutions, and actual concentrations of the samples in the solutions were measured through high-performance liquid chromatography (HPLC) (diluting the filtrates as needed). Crystal forms of the solids before and after the experiment were characterized through XRPD to check whether phase transition had occurred. Table 4 Comparison of solubility of crystal form A and crystal form B

[2] = Equilibrium solubility in organic solvents at room temperature (HPLC; solid by XRPD); settings: equilibrium for 24 h; for solubility at 24 h: organic solvent or mixture, thermodynamic from solid
Procedure: The crystal form A and the crystal form B of ethoximod were prepared into solutions at room temperature with ethanol, acetone and ethyl acetate. After equilibrium for 24 h, filtration was performed to obtain saturated solutions, and contents of the samples in the saturated solutions were measured through high-performance liquid chromatography (HPLC) (diluting the filtrates as needed). Crystal forms of the solids before and after the experiment were characterized through XRPD to check whether phase transition had occurred.

[3] = Mechanical stability: grinding, XRPD before and after; settings: ground with an agate mortar for 5 min; hydrochloride
Procedure: 50 mg crystal form A of ethoximod and 50 mg crystal form B of ethoximod were weighed and ground clockwise with an agate mortar for 5 min, and the samples before and after the grinding were subjected to an XRPD test.

[4] = Angle of repose test (flowability); settings: hydrochloride
Procedure: Powder properties of active pharmaceutical ingredients affect the flowability of the active pharmaceutical ingredients. The crystal form A and the crystal form B of ethoximod was subjected to angle of repose and Hausner ratio tests to compare the flowability of the crystal form A and the crystal form B of ethoximod. […] In this experiment, angles of repose of active pharmaceutical ingredients of the two crystal forms were measured through an injection method in combination with a residual cone method, and the flowability of the active pharmaceutical ingredients of the two crystal forms was analyzed. Specific operations are as follows: powders were injected into a center of a disc with a limited diameter, the injection was stopped until materials on an oblique side of a powder accumulation layer automatically flew out along an edge of the disc, a height (H) of a cone was measured, and the angle of repose was calculated according to the diameter (D = 2r) of the disc with tanQ = H/r.

[5] = Bulk density and tap density test, Hausner ratio and compressibility; settings: hydrochloride
Procedure: In this experiment, the measurement was performed by using a tap instrument according to a fixed volume method. Specific operations are as follows: the weighed powders were loaded into a 50 mL graduated cylinder, and the graduated cylinder was fixed on a support; the tap instrument was set to vibrate 55±5 times per minute for 6-8 min; a change in a volume of the powders in the measuring cup was measured. A ratio of a mass of the powders to a volume (50 mL) of the materials before the tap is the bulk density of the powders, and a ratio of the mass of the powders to a volume of the materials after the tap is the tap density of the powders. Methods for converting Hausner ratio and compressibility are as follows, and the description of Hausner ratio and flowability is shown in Table 8: Table 6 Physical properties of crystal form A and crystal form B

[6] = Adhesion test in ziplock bag; settings: ziplock bag flipped at 5 rpm, 10 min in each direction; hydrochloride
Procedure: Each of the crystal form A and the crystal form B of ethoximod was taken and put into a ziplock bag with a fixed size. A seal was sealed, and the ziplock bag was flipped at a rotation speed of 5 rpm for 10 min. A direction was changed, and the ziplock bag continued to be flipped at a fixed rotation speed for 10 min. Raw materials were poured out from the bag, a mass of the remaining raw materials was weighed accurately, and an adhesion rate was calculated.

[7] = Compressibility: tableting evaluation; settings: punch die with a diameter of 6 mm, hydrochloride
Procedure: The crystal form A and the crystal form B of ethoximod were taken for preparation tableting evaluation. In this experiment, samples were subjected to tableting under the same pressure by using a punch die with a diameter of 6 mm, radial crushing forces F, diameters D and thicknesses L of the tablets were measured after the elastic recovery of the tablets, and the tensile strength of the tablets was calculated according to the following formula: tensile strength Ts = 2F/ΠDL.

[8] = Microscopic morphology and particle size; settings: optical microscope, 40× objective lens; hydrochloride
From the text: Samples of the crystal form A and the crystal form B of ethoximod were subjected to microscopic morphological researches. The morphology and particle sizes of the crystal form A and the crystal form B were observed under a 40× objective lens of an optical microscope. The crystal form A is irregular and plate-shaped with a raw material particle size of below 35 µm and a long/short diameter ratio of 1 to 2. The crystal form B aggregates and becomes spherical with a raw material particle size of below 20 µm.

CCc1nc(-c2ccc(-c3ccc(CCC(N)(CO)CO)cc3)cc2)co1.Cl [crystal form A, 2-amino-2-{2-(4'-(2-ethyloxazol-4-yl)-[1,1'-biphenyl]-4-yl)ethyl}-1,3-propylene glycol hydrochloride]
crystal form of the solid ([1]; FaSSIF (pH = 8.0), 37 °C, 1 h, hydrochloride): A+free alkali | crystal form of the solid ([1]; FaSSIF (pH = 8.0), 37 °C, 2 h, hydrochloride): A+free alkali | crystal form of the solid ([1]; FaSSIF (pH = 8.0), 37 °C, 4 h, hydrochloride): A+free alkali | crystal form of the solid ([1]; FaSSIF (pH = 8.0), 37 °C, 24 h, hydrochloride): A+free alkali | solubility at 1 h ([1]; Fasted State Simulated Intestinal Fluid (FaSSIF), 37 °C, pH 8, fassif, FaSSIF (pH = 8.0), 1 h): 10 µg/mL | solubility at 2 h ([1]; Fasted State Simulated Intestinal Fluid (FaSSIF), 37 °C, pH 8, fassif, FaSSIF (pH = 8.0), 2 h): 9 µg/mL | solubility at 4 h ([1]; Fasted State Simulated Intestinal Fluid (FaSSIF), 37 °C, pH 8, fassif, FaSSIF (pH = 8.0), 4 h): 11 µg/mL | solubility at 24 h ([1]; Fasted State Simulated Intestinal Fluid (FaSSIF), 37 °C, pH 8, fassif, FaSSIF (pH = 8.0), 24 h): 26 µg/mL | solubility ([1]; FeSSIF (pH = 5.0), 37 °C, 4 h, hydrochloride): 2520 µg/mL | solubility at 1 h ([1]; Fed State Simulated Intestinal Fluid (FeSSIF), 37 °C, pH 5, fessif, FeSSIF (pH = 5.0), 1 h): 1540 µg/mL | solubility at 2 h ([1]; Fed State Simulated Intestinal Fluid (FeSSIF), 37 °C, pH 5, fessif, FeSSIF (pH = 5.0), 2 h): 2000 µg/mL | solubility at 24 h ([1]; Fed State Simulated Intestinal Fluid (FeSSIF), 37 °C, pH 5, fessif, FeSSIF (pH = 5.0), 24 h): 2670 µg/mL | solubility at 1 h ([1]; Simulated Gastric Fluid (SGF), 37 °C, pH 1, simulated gastric fluid, SGF (pH = 1.0), 1 h): 240 µg/mL | solubility at 2 h ([1]; Simulated Gastric Fluid (SGF), 37 °C, pH 1, simulated gastric fluid, SGF (pH = 1.0), 2 h): 260 µg/mL | solubility at 4 h ([1]; Simulated Gastric Fluid (SGF), 37 °C, pH 1, simulated gastric fluid, SGF (pH = 1.0), 4 h): 260 µg/mL | solubility at 24 h ([1]; Simulated Gastric Fluid (SGF), 37 °C, pH 1, simulated gastric fluid, SGF (pH = 1.0), 24 h): 270 µg/mL | solubility at 1 h ([1]; acetic acid-sodium acetate buffer, 37 °C, pH 4, aqueous buffer, acetic acid-sodium acetate buffer pH = 4.0, 37 °C, 1 h): 2490 µg/mL | solubility at 2 h ([1]; acetic acid-sodium acetate buffer, 37 °C, pH 4, aqueous buffer, acetic acid-sodium acetate buffer pH = 4.0, 37 °C, 2 h): 2480 µg/mL | solubility at 4 h ([1]; acetic acid-sodium acetate buffer, 37 °C, pH 4, aqueous buffer, acetic acid-sodium acetate buffer pH = 4.0, 37 °C, 4 h): 2740 µg/mL | solubility at 24 h ([1]; acetic acid-sodium acetate buffer, 37 °C, pH 4, aqueous buffer, acetic acid-sodium acetate buffer pH = 4.0, 37 °C, 24 h): 2590 µg/mL | solubility at 1 h ([1]; hydrochloric acid aqueous solution, 37 °C, pH 1, simulated gastric fluid, hydrochloric acid aqueous solution pH = 1.0, 37 °C, 1 h): 280 µg/mL | solubility at 2 h ([1]; hydrochloric acid aqueous solution, 37 °C, pH 1, simulated gastric fluid, hydrochloric acid aqueous solution pH = 1.0, 37 °C, 2 h): 280 µg/mL | solubility at 4 h ([1]; hydrochloric acid aqueous solution, 37 °C, pH 1, simulated gastric fluid, hydrochloric acid aqueous solution pH = 1.0, 37 °C, 4 h): 290 µg/mL | solubility at 24 h ([1]; hydrochloric acid aqueous solution, 37 °C, pH 1, simulated gastric fluid, hydrochloric acid aqueous solution pH = 1.0, 37 °C, 24 h): 380 µg/mL | crystal form of the solid ([1]; phosphate buffer pH = 6.8, 37 °C, 1 h): free alkali | solubility ([1]; phosphate buffer pH = 6.8, 37 °C, 1 h, hydrochloride): 0.2 µg/mL | crystal form of the solid ([1]; phosphate buffer pH = 6.8, 37 °C, 2 h): free alkali | crystal form of the solid ([1]; phosphate buffer pH = 6.8, 37 °C, 4 h): free alkali | crystal form of the solid ([1]; phosphate buffer pH = 6.8, 37 °C, 24 h): free alkali | solubility ([1]; phosphate buffer pH = 6.8, 37 °C, 24 h, hydrochloride): 0.76 µg/mL | solubility at 2 h ([1]; phosphate buffer, 37 °C, pH 6.8, aqueous buffer, phosphate buffer pH = 6.8, 37 °C, 2 h): 0.07 µg/mL | solubility at 4 h ([1]; phosphate buffer, 37 °C, pH 6.8, aqueous buffer, phosphate buffer pH = 6.8, 37 °C, 4 h): 0.14 µg/mL | solubility at 1 h ([1]; water, 37 °C, 1 h): 2080 µg/mL | solubility at 2 h ([1]; water, 37 °C, 2 h): 2150 µg/mL | solubility at 4 h ([1]; water, 37 °C, 4 h): 2140 µg/mL | solubility at 24 h ([1]; water, 37 °C, 24 h): 2260 µg/mL | solubility at 24 h ([2]; acetone): 30 µg/mL | solubility at 24 h ([2]; ethanol): 3470 µg/mL | solubility ([2]; ethyl acetate, hydrochloride): 40 µg/mL | crystal form after grinding (XRPD) [3]: remains unchanged | Average of Angles of Repose [4]: 57.2 ° | Angle of Repose ([4]; single determination): 56.3 ° and 58.0 ° | Compressibility ([5]; (tap density - bulk density)/tap density): 54.0 | Bulk Density [5]: 0.2578 g/mL | Tap Density [5]: 0.5604 g/mL | Hausner Ratio ([5]; tap density/bulk density): 2.2 | Adhesion Amount Per Unit Area [6]: 0.002 g/m^2 | Weight of API Adsorbed in Bag [6]: 0.1053 g | Radial Crushing Force F (Hardness/N) ([7]; tablet): 5 N and 3 N | Experimental Phenomenon ([7]; tableting): slight sticking | raw material particle size [8]: below 35 µm
